In US20190336484A1, “IL-8 INHIBITORS FOR USE IN THE TREATMENT OF SOME UROLOGICAL DISORDERS” (DOMPÉ FARMACEUTICI S.P.A., priority 2017, published 2019):

How the values were obtained:
CXCR1/CXCR2 = details: Bertini R. et al, Br J Pharmacol 2012; cited from earlier work
pharmacokinetic profile = details: in vivo
Excerpt: In fact, as it will be illustrated in the Experimental section, Compd.

RWPE-1 cells = experiment: in vitro inflammatory model of prostatitis: ROS/RNS production (DCFH-DA assay) in RWPE-1 cells exposed to conditioned medium from activated U-937; format: cell-based, human; details: then CM from activated U-937, measured after 3 hours
Excerpt: Characterization of Compound 1 on an in vitro inflammatory model of prostatitis.
In the aim of characterizing the Compound 1 on an in vitro inflammatory prostatitis model, human prostatic normal cells RWPE-1 (ATCC, lot number 61840713) are put in communication with activated macrophages; thus it induces an inflammatory micro-environment that enhances the production of reactive oxygen and nitrogen species (Debelec-Butuner et al, Mol. Carcinogen. 2014, 53:85-97).
Human U-937 monocytes (ATCC, lot number 61795631) seeded at 50.000 cells/ml were differentiated with phorbol acetate ([…]) for 16 h. In order to stimulate cytokines production, lipopolysaccharide (LPS) was added (10 ng/ml for 24 h) and the conditioned medium (CM) collected.
After 24 h in culture, RWPE-1 cells were treated with Compound 1 (0.1, 1 and 10 μM) and then exposed to CM from activated U-937. After 3 hours, reactive oxygen species (ROS) and Reactive Nitrogen species (RNS) were quantitatively measured by means of 2′,7′-dichlorodihydrofluorescein diacetate (DCFH-DA) assay. […] DCF is a highly fluorescent compound which can be detected by fluorescence spectroscopy with maximum excitation and emission spectra of 495 nm and 529 nm respectively (Games et al, J. Biochem. Biophys. Methods 2005, 65:45-80).

[1] = test system: testosterone-induced prostate hypertrophy (TBPH); experiment: Testosterone-induced prostate hypertrophy (TBPH), cystometry / urodynamic parameters; format: in vivo, Sprague-Dawley male rats; details: 20 mg/kg oral twice daily, 5 days a week, 4 weeks
Excerpt: The study was undertaken to test the effects of chronic oral administration of Compound 1 in rats with dysfunctional bladders in an experimental model of TBPH involving an estrogen-associated inflammation (Tatemichi et al, J Urol 2006, 176:1236-1241).
(§1) A total 26 Sprague-Dawley male rats (250-270 g) were used for the study, according to the regulations of the Animal Ethics Committee (IACUC n.631). The rats were maintained under standard laboratory conditions at 12:12 light/dark cycle with free access to food pellets and tap water.
BPH was induced treating animals once a week for 4 weeks with intramuscular hormones corresponding to testosterone enanthate (Geymonat, 12.5 mg)+17β-estradiol-velerate (SIGMA, 0.125 mg) in sesame oil. […]
The conscious rats were placed in metabolic cages without restraint and the bladder catheters were connected via a T-tube to a pressure transducer (P23 DC; Statham Instruments Inc., Oxnard, Calif., USA) and a microinjection pump (CMA 100; Carnegie Medicine Aft Solna, Sweden). Micturition volumes were recorded with a fluid collector connected to a force displacement transducer (FT 03 D, Grass Instrument Co., Quincy, Mass., USA). […] Pressures and micturition volumes were recorded continuously with Acq Knowledge 3.8.1 software and a MP100 data acquisition system (Biopac Syst. Inc. Santa Barbara, Calif.) connected to a Grass polygraph (Model 7E, Grass Instrument Co).

[2] = test system: experimental autoimmune chronic prostatitis (EACP); experiment: Experimental autoimmune chronic prostatitis (EACP), mechanical allodynia by Von Frey test; format: in vivo, Lewis male rats; details: 20 mg/kg oral twice daily
Excerpt: The experimental autoimmune chronic prostatitis (EACP) can be easily generated in rats by specific immunization with syngeneic rat prostate homogenate. As a consequence of the strong inflammatory reaction, pelvic pain is generated, as already described (Zhang et al, Scand J Immunol 2011, 73:546-553; Zhang et al, Prostate 2012, 72:90-99; Wang et al, Int Urol Nephrol 2015, 47:307-316; Rudick et al, Am J Physiol Regul Integr Comp Physiol 2008, 294:R1268-1275).
as §1, with “of 36 Lewis” for “26 Sprague-Dawley”, “g) from Charles River Italy” for “g)”
Each animal was initially immunized with 2 mg of syngeneic prostate protein, diluted in saline, emulsified with complete Freund adjuvant containing 2 mg/ml of H37a mycobacterium (BD). Emulsion was produced by vortexing the mix for 15 min or till obtaining appropriate viscosity. A total volume of 0.2 mL in two sites was injected into each anesthetized rat at the dorsal tail base. A booster immunization was then repeated 13 days after the first injection. […]
Effect of pelvic pain was evaluated 16 and 26 days after immunization by testing mechanical allodynia with Von Frey test. […]

SMILES	CXCR1/CXCR2 inhibitor character (CXCR1/CXCR2)	absorption (plasma) (pharmacokinetic profile)	total ROS and RNS production induced by conditioned medium (CM) (RWPE-1 cells; Compound 1 at 1 μM)	total ROS and RNS production induced by conditioned medium (CM) (RWPE-1 cells; Compound 1 at 10 μM)	post void residual volume (PVR) ([1]; FIG. 4)	area under pressure/time curve (AUC, detrusor over activity) ([1]; FIG. 5)	mechanical hypersensitivity and allodynia (abdomen/pelvic withdrawal threshold, Von Frey) ([2]; day 16 and 26 after immunization, compared to vehicle)	applied force eliciting response in Von Frey test, fold higher ([2]; vehicle group stimulated by 19 g, FIG. 3)
C[C@@H](C(=O)NS(C)(=O)=O)c1ccc(OS(=O)(=O)C(F)(F)F)cc1.[Na] [Compd.2, sodium salt of R(−)-2-[(4′-trifluoromethanesulfonyloxy)phenyl]-N-methanesulfonyl propionamide]	potent and selective dual CXCR1/CXCR2 non-competitive allosteric inhibitor	–	–	–	–	–	–	–
C[C@H](C(=O)[O-])c1ccc(Nc2nc(C(F)(F)F)cs2)cc1.[Na+] [Compound 1, sodium salt of (2S)-2-(4-{[4-(trifluoromethyl)-1,3-thiazol-2-yl]amino}phenyl) propanoic acid]	–	rapid absorption	completely reverted the CM effect	more modest effect in comparison to the concentration 1 μM	numerical trend in reducing	numerical trend in reducing	partly decreased the mechanical hypersensitivity and allodynia reaching the statistical significance at day 26	2,8 fold
